Measurements: patent US20240270821A1, “GIP/GLP1/GCG TRI-RECEPTOR AGONISTS AND USES THEREOF” (priority 2023, published 2024)
Where two headings read alike, the source gives them in different places. Starred links: 1 amine or outer side, 2 acyl side, 3 side chain; linkers in the order of their positions; H or OH if unused. Non-standard residues stand in square brackets, D forms with d. Groups on a side chain read outwards from the residue. *: point of attachment. C20 diacid = O=C(O)CCCCCCCCCCCCCCCCCCC(=O)*; C18 diacid = O=C(O)CCCCCCCCCCCCCCCCC(=O)*; Phe(4-CN) = N#Cc1ccc(C[C@H](N)C(=O)O)cc1; αMePhe(2-F) = C[C@](N)(Cc1ccccc1F)C(=O)O; γGlu = O=C(O)[C@H](CCC(=O)[*:2])N[*:1]; NMeY = CN[C@@H](Cc1ccc(O)cc1)C(=O)O; αMe4Pal = C[C@](N)(Cc1ccncc1)C(=O)O; αMeY = C[C@](N)(Cc1ccc(O)cc1)C(=O)O; 4Pal = N[C@@H](Cc1ccncc1)C(=O)O; αMeL = CC(C)C[C@](C)(N)C(=O)O; αMeS = C[C@](N)(CO)C(=O)O; Orn = NCCC[C@H](N)C(=O)O; AEEA = NCCOCCOCC(=O)O; Aib = CC(C)(N)C(=O)O

Experiments:
Format in all cases: cell-based
hGcgR = hGcgR (Homo sapiens, UniProt P47871); assay: Functional cAMP activation in the presence of 0.1% casein (no HSA); conditions: read-out: Relative cAMP EC50, hGcgR;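 further: intracellular cAMP rise after 30 min at 37 °C, read by HTRF against a cAMP standard curve, scaled from buffer only (0%) to maximal control ligand response (100%)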
hGIPR [1] = target: T1, hGIPR (Homo sapiens, UniProt P48546); assay: as above; conditions: read-out: Relative cAMP EC50, hGIPR;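 further: intracellular cAMP rise after 30 min at 37 °C read by HTRF against a standard curve, scaled between buffer alone (0%) and top control ligand concentration (100%), four-parameter fit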
T1 sequence (P48546 22-466): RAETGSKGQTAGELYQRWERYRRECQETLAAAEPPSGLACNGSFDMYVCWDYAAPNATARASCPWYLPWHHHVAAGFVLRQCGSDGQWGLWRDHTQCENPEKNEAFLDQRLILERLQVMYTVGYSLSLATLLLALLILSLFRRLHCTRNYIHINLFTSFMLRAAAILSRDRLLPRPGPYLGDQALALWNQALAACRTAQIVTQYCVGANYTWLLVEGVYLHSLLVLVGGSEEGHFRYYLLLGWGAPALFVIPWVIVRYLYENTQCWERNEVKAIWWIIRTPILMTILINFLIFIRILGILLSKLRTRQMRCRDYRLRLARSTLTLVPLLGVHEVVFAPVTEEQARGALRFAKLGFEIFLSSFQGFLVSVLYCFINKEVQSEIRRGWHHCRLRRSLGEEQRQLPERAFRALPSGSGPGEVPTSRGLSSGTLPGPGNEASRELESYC

hGLP-1R [2] = target: T2, hGLP-1R (Homo sapiens, UniProt P43220); assay: as above; conditions: read-out: Relative cAMP EC50, hGLP-1R;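 further: intracellular cAMP rise after 30 min at 37 °C read by HTRF, normalized between buffer only (0%) and maximal control ligand (100%), four-parameter variable-slope fit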
human GcgR = human GcgR (Homo sapiens, UniProt P47871); assay: Functional cAMP activity in the presence of 1% HSA; conditions: read-out: cAMP Rel EC50, hGcgR
hGLP-1R [3] = target: T2, hGLP-1R; assay: Functional cAMP activity in the presence of 1% HSA; conditions: read-out: cAMP Rel EC50, hGLP-1R
hGIPR [4] = target: T1, hGIPR; assay: Functional cAMP activity in the presence of 1% HSA; conditions: read-out: cAMP Rel EC50, hGIPR
[5] = in the presence of 0.1% casein (no HSA), geometric mean
[6] = 0.1% casein, no HSA, geometric mean

Chain of hGcgR (P47871 26-477): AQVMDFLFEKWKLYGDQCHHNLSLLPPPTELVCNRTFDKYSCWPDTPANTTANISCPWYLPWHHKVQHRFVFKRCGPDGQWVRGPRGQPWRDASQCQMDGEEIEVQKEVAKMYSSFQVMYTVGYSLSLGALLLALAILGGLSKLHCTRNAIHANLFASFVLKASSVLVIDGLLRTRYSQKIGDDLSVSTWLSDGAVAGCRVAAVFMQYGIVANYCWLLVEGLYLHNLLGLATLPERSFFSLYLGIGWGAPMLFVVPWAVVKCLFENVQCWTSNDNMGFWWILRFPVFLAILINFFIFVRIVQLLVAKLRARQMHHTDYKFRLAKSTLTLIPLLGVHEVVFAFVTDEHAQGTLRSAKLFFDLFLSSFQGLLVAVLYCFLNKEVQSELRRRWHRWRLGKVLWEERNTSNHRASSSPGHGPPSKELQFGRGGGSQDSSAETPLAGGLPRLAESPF
Chain of human GcgR (P47871 26-477): as above
T2 sequence (P43220 24-463): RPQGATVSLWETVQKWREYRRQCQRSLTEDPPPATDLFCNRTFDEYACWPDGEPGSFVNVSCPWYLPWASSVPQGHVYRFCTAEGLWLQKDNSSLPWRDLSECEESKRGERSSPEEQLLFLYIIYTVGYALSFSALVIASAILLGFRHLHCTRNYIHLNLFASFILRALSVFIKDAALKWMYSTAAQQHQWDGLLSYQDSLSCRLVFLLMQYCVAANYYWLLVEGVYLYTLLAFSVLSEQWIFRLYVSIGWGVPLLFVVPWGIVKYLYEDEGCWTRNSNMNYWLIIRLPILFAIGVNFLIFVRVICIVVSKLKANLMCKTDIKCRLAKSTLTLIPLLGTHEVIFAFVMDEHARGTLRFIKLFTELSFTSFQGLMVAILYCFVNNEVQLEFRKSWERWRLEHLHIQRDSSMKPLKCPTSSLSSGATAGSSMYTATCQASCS

EC50 (hGcgR) [nM]	EC50 (hGIPR [1]) [nM]	EC50 (hGLP-1R [2]) [nM]	EC50 (hGcgR; [5]) [nM]	EC50 (hGIPR [1]; [5]) [nM]	EC50 (hGLP-1R [2]; [5]) [nM]	Substance	EC50 (human GcgR) [nM]	EC50 (hGLP-1R [3]) [nM]	EC50 (hGIPR [4]) [nM]	EC50 (hGcgR; [6]) [nM]	EC50 (hGIPR [1]; [6]) [nM]	EC50 (hGLP-1R [2]; [6]) [nM]
1.59	0.015	0.348	–	–	–	H-Y[Aib]QGT[αMePhe(2-F)]TSD[4Pal][αMeS]I[αMeL]LD[Orn]K([γGlu-γGlu-C18 diacid])AQ[αMe4Pal]EFI[dE][αMeY]LVEGGPSSGEPPPSGGGE-NH2 [Example 739]	155	27.1	0.507	–	–	–
–	–	–	1.75	0.00951	0.449	H-Y[Aib]QGT[αMePhe(2-F)]TSD[4Pal][αMeS]I[αMeL]LD[Orn]K([γGlu-γGlu-C18 diacid])AQ[αMe4Pal]EFI[dE][αMeY]LVEGGPSSGEPPPSGSE-NH2 [Example 1163]	163	35.4	0.721	–	–	–
1.87	0.00991	0.368	–	–	–	H-Y[Aib]QGT[αMePhe(2-F)]TSD[4Pal][αMeS]I[αMeL]LD[Orn]K([γGlu-γGlu-C18 diacid])AQ[αMe4Pal]EFI[dE][αMeY]LVEGGPSSGEPPPSGTGE-NH2 [Example 738]	162	28.2	0.64	–	–	–
–	–	–	–	–	–	H-Y[Aib]QGT[αMePhe(2-F)]TSD[4Pal][αMeS]I[αMeL]LD[Orn]QAQ[αMe4Pal]EFI[dE][αMeY]LIEGGPSSGAPPPSGS-NH2 [Example 1232]	8.53	0.694	0.00687	6.69	0.00893	0.723
–	–	–	–	–	–	H-Y[Aib]QGT[αMePhe(2-F)]TSD[4Pal][αMeS]I[αMeL]LD[Orn]QAQ[αMe4Pal]EFI[dE][αMeY]LIEGGPSSGAPPPSGSE-NH2 [Example 1233]	9.9	1.06	0.00988	9.48	0.012	1.09
–	–	–	–	–	–	H-Y[Aib]QGT[αMePhe(2-F)]TSD[4Pal][αMeS]I[αMeL]LD[Orn]QAQ[αMe4Pal]EFI[dE][αMeY]LVEGGPSSGAPPPSGS-NH2 [Example 1231]	17.1	1.22	0.00994	15.7	0.0146	1.23
–	–	–	–	–	–	H-Y[Aib]QGT[αMePhe(2-F)]TSD[4Pal][αMeS]I[αMeL]LD[Orn][Orn]([AEEA-γGlu-C18 diacid])AQ[αMe4Pal]EFI[dE][αMeY]LIEGGPSSGAPPPSGGGE-NH2 [Example 1213]	268	44	0.616	1.69	0.00721	0.423
–	–	–	–	–	–	H-Y[Aib]QGT[αMePhe(2-F)]TSD[4Pal][αMeS]I[αMeL]LD[Orn][Orn]([AEEA-γGlu-C18 diacid])AQ[αMe4Pal]EFI[dE][αMeY]LIEGGPSSGAPPPSGS-NH2 [Example 1211]	211	33.2	0.489	1.45	0.00592	0.276
–	–	–	–	–	–	H-Y[Aib]QGT[αMePhe(2-F)]TSD[4Pal][αMeS]I[αMeL]LD[Orn][Orn]([AEEA-γGlu-C18 diacid])AQ[αMe4Pal]EFI[dE][αMeY]LIEGGPSSGAPPPSGSE-NH2 [Example 1212]	230	38.2	0.614	1.71	0.00702	0.357
–	–	–	10.4	0.106	0.776	H-Y[Aib]QGT[αMePhe(2-F)]TSD[Phe(4-CN)]SILLDKQAQK([AEEA-AEEA-γGlu-C20 diacid])AFIEYLLEGGPSSGEPPPSAG-NH2 [Example 350]	3760	360	33.6	–	–	–
–	–	–	11	0.127	0.634	H-Y[Aib]QGT[αMePhe(2-F)]TSD[Phe(4-CN)]SILLDKQAQK([AEEA-AEEA-γGlu-C20 diacid])AFIQYLLEGGPSSGEPPPSEG-NH2 [Example 353]	3080	222	53.7	–	–	–
–	–	–	10.7	0.213	1.62	H-Y[Aib]QGT[αMePhe(2-F)]TSD[Phe(4-CN)]SILLDKQAQK([AEEA-γGlu-C20 diacid])AFIQYLLEGGPSSGEPPPSEG-NH2 [Example 341]	2930	395	49.6	–	–	–
–	–	–	16.4	0.245	0.967	H-Y[Aib]QGT[αMePhe(2-F)]TSD[Phe(4-CN)]SILLDKQAQK([AEEA-γGlu-γGlu-C20 diacid])AFIEYLLEGGPSSGEPPPSEG-NH2 [Example 352]	4020	407	34.1	–	–	–
–	–	–	10.2	0.457	1.1	H-Y[Aib]QGT[αMePhe(2-F)]TSD[Phe(4-CN)]SKLLDKIAQK([AEEA-γGlu-C20 diacid])AFIEYLIEGGPSSGEPPPSGS-NH2 [Example 364]	3190	260	101	–	–	–
–	–	–	–	–	–	H-Y[Aib]Q[dA]T[αMePhe(2-F)]TSD[4Pal]SI[αMeL]LD[Orn]K([AEEA-γGlu-C18 diacid])AQ[αMe4Pal]EFI[dE][αMeY]LIEGGPSSGAPPPSGS-NH2 [Example 1206]	251	44.1	7.04	1.78	0.0671	0.352
–	–	–	–	–	–	H-Y[Aib]Q[dA]T[αMePhe(2-F)]TSD[4Pal]SI[αMeL]LD[Orn]K([AEEA-γGlu-C18 diacid])AQ[αMe4Pal]EFI[dE][αMeY]LVEGGPSSGAPPPSGS-NH2 [Example 1205]	325	50	16.3	3.33	0.152	0.523
–	–	–	–	–	–	H-Y[Aib]Q[dA]T[αMePhe(2-F)]TSD[4Pal][αMeS]I[αMeL]LD[Orn]K([AEEA-γGlu-C18 diacid])AQ[Aib]EFI[dE][αMeY]LIEGGPSSGAPPPSGGGE-NH2 [Example 1223]	472	40.7	9.25	2.61	0.0916	0.337
–	–	–	–	–	–	H-Y[Aib]Q[dA]T[αMePhe(2-F)]TSD[4Pal][αMeS]I[αMeL]LD[Orn]K([AEEA-γGlu-C18 diacid])AQ[Aib]EFI[dE][αMeY]LIEGGPSSGAPPPSGSE-NH2 [Example 1222]	470	44.8	12.4	2.55	0.0858	0.346
–	–	–	–	–	–	H-Y[Aib]Q[dA]T[αMePhe(2-F)]TSD[4Pal][αMeS]I[αMeL]LD[Orn]K([AEEA-γGlu-C18 diacid])AQ[Aib]EFI[dE][αMeY]LVEGGPSSGAPPPSGS-NH2 [Example 1204]	507	37.4	15.8	3.5	0.21	0.338
0.689	0.0323	0.273	–	–	–	H-Y[Aib]Q[dA]T[αMePhe(2-F)]TSD[4Pal][αMeS]I[αMeL]LD[Orn]K([AEEA-γGlu-C18 diacid])AQ[αMe4Pal]EFI[dE][αMeY]LIEGGPSSGEPPPSGTGE-NH2 [Example 766]	65.7	32.5	14.1	–	–	–
–	–	–	–	–	–	H-Y[Aib]Q[dA]T[αMePhe(2-F)]TSD[4Pal][αMeS]I[αMeL]LD[Orn]K([γGlu-γGlu-C18 diacid])AQ[Aib]EFI[dE][αMeY]LIEGGPSSGAPPPSGGGE-NH2 [Example 1225]	275	31.4	3.67	2.45	0.0531	0.399
–	–	–	–	–	–	H-Y[Aib]Q[dA]T[αMePhe(2-F)]TSD[4Pal][αMeS]I[αMeL]LD[Orn]K([γGlu-γGlu-C18 diacid])AQ[Aib]EFI[dE][αMeY]LIEGGPSSGAPPPSGSE-NH2 [Example 1224]	208	28.4	3.78	2.32	0.048	0.379

Substance	EC50 (hGcgR) [nM]	EC50 (hGIPR [1]) [nM]	EC50 (hGLP-1R [2]) [nM]	EC50 (hGcgR; [5]) [nM]	EC50 (hGIPR [1]; [5]) [nM]	EC50 (hGLP-1R [2]; [5]) [nM]	EC50 (human GcgR) [nM]	EC50 (hGLP-1R [3]) [nM]	EC50 (hGIPR [4]) [nM]	EC50 (hGcgR; [6]) [nM]	EC50 (hGIPR [1]; [6]) [nM]	EC50 (hGLP-1R [2]; [6]) [nM]
H-Y[Aib]QGT[αMePhe(2-F)]TSD[Phe(4-CN)]SKLLDKIAQK([AEEA-γGlu-C20 diacid])AFIEYLIEGGPSSGAPPPSGS-NH2 [Example 363]	–	–	–	13.6	0.375	1.47	4080	217	91.8	–	–	–
H-[NMeY][Aib]QGTFTSD[4Pal][αMeS]Q[αMeL]LD[Orn]K([dE-γGlu-C18 diacid])AQ[αMe4Pal]QFIQ[αMeY]LIE[Aib]GPSSGAPPPSGGGE-NH2 [Example 1134]	–	–	–	2.57	0.0391	0.957	180	78.9	2.41	–	–	–
